From patent publication US20120328638A1, “MYBL2 PEPTIDES AND VACCINES CONTAINING THE SAME” (Onco Therapy Science, Inc., priority 2009, published 2012)
Entries after “also recorded” stand apart in the source; their conditions may differ. Ends that are not written are not given here.

Experiments:
peptide-pulsed T2 cells = experiment: IFN-gamma ELISPOT assay of peptide specific CTL activity after in vitro CTL induction; type: cell-based, human; details: against peptide-pulsed T2 cells compared with control not pulsed; PBMCs of HLA-A*0201 positive donor; day 21
Excerpt: Monocyte-derived dendritic cells (DCs) were used as antigen-presenting cells (APCs) to induce cytotoxic T lymphocyte (CTL) responses against peptides presented on human leukocyte antigen (HLA). DCs were generated in vitro as described elsewhere (Nakahara S et al., Cancer Res 2003 Jul. 15, 63(14): 4112-8). Specifically, peripheral blood mononuclear cells (PBMCs) isolated from a normal volunteer (HLA-A*0201 positive) by Ficoll-Plaque (Pharmacia) solution were separated by adherence to a plastic tissue culture dish (Becton Dickinson) so as to enrich them as the monocyte fraction. The monocyte-enriched population was cultured in the presence of 1000 U/ml of granulocyte-macrophage colony-stimulating factor (R&D System) and 1000 U/ml of interleukin (IL)-4 (R&D System) in AIM-V Medium (Invitrogen) containing 2% heat-inactivated autologous serum (AS). After 7 days of culture, the cytokine-induced DCs were pulsed with 20 microgram/ml of each of the synthesized peptides in the presence of 3 microgram/ml of beta 2-microglobulin for 3 hrs at 37 degrees C. in AIM-V Medium. The generated cells appeared to express DC-associated molecules, such as CD80, CD83, CD86 and HLA class II, on their cell surfaces (data not shown). […]

[1] = system: COS7 cells transfected with MYBL2 and HLA-A*0201; experiment: Specific CTL activity against target cells exogenously expressing MYBL2 and HLA-A*0201; type: cell-based, African green monkey
Excerpt: The cDNA encoding an open reading frame of target genes or HLA-A*0201 was amplified by PCR. The PCR-amplified product was cloned into expression vector. The plasmids were transfected into COS7, which is the target genes and HLA-A*0201-null cell line, using lipofectamine 2000 (Invitrogen) according to the manufacturer's recommended procedures. After 2 days from transfection, the transfected cells were harvested with versene (Invitrogen) and used as the stimulator cells (5×10^4 cells/well) for CTL activity assay.
The established CTL clone raised against MYBL2-A02-9-144 (SEQ ID NO: 3) was examined for the ability to recognize target cells that express MYBL2 and HLA-A*0201 molecule. […] COS7 cells transfected with either full length of MYBL2 or HLA-A* 0201 were prepared as the controls.

[2] = system: target cells pulsed with the corresponding peptide (T2); experiment: IFN-gamma ELISA assay of established CTL line and CTL clone; type: cell-based, human
Procedure: CTLs were expanded in culture using the method similar to the one described by Riddell et al. (Walter E A et al., N Engl J Med 1995 Oct. 19, 333(16): 1038-44; Riddell S R et al., Nat Med 1996 February, 2(2): 216-23). A total of 5×10^4 CTLs were suspended in 25 ml of AIM-V/5% AS medium with 2 kinds of human B-lymphoblastoid cell lines, inactivated by Mitomycin C, in the presence of 40 ng/ml of anti-CD3 monoclonal antibody (Pharmingen). One day after initiating the cultures, 120 IU/ml of IL-2 were added to the cultures. The cultures were fed with fresh AIM-V/5% AS medium containing 30 IU/ml of IL-2 on days 5, 8 and 11 (Tanaka H et al., Br J Cancer 2001 Jan. 5, 84(1): 94-9; Umano Y et al., Br J Cancer 2001 Apr. 20, 84(8): 1052-7; Uchida N et al., Clin Cancer Res 2004 Dec. 15, 10(24): 8577-86; Suda T et al., Cancer Sci 2006 May, 97(5): 411-9; Watanabe T et al., Cancer Sci 2005 August, 96(8): 498-506).
The dilutions were made to have 0.3, 1, and 3 CTLs/well in 96 round-bottomed micro titer plate (Nalge Nunc International). CTLs were cultured with 1×10^4 cells/well of 2 kinds of human B-lymphoblastoid cell lines, 30 ng/ml of anti-CD3 antibody, and 125 U/ml of IL-2 in a total of 150 microliter/well of AIM-V Medium containing 5% AS. 50 microliter/well of IL-2 were added to the medium 10 days later so to reach a final concentration of 125 U/ml IL-2. […]

| Sequence | IFN-gamma production of CTLs stimulated with peptide (ELISPOT) (peptide-pulsed T2 cells) | Specific CTL activity of CTL clone against COS7 cells expressing both MYBL2 and HLA-A*0201 ([1]; COS7 transfected with both full length MYBL2 and HLA-A*0201) | Specific CTL activity of CTL clone against control COS7 cells ([1]; COS7 transfected with either full length MYBL2 or HLA-A*0201 alone) | IFN-gamma production of CTL clone (ELISA) ([2]; CTL clone established by limiting dilution, target cells pulsed with peptide vs not pulsed) | IFN-gamma production of CTL line (ELISA) ([2]; CTL line from well #8, target cells pulsed with peptide vs without peptide pulse) |
| --- | --- | --- | --- | --- | --- |
| RIICEAHKV [MYBL2-A02-9-144, RIICEAHKV] | potent IFN-gamma production | potent CTL activity; also recorded: specific CTL activity | no significant specific CTL activity was detected | potent IFN-gamma production | potent IFN-gamma production |
| VLPPRQPSA [MYBL2-A02-9-355, VLPPRQPSA] | specific IFN-gamma production was not observed; also recorded: no specific IFN-gamma production was detected |  |  |  |  |
